Assays:
[1] = tested on: bovine microvascular endothelial cells (BMEC) adhesion to Vitronectin; assay: Adhesion inhibition of BMEC to vitronectin; assay type: cell-based
Procedure: (§1) Bovine microvascular endothelial cells (BMEC) were maintained in DMEM supplemented with 20% foetal calf serum, 50 units/ml heparin, 50 μg/ml bovine brain extract, 100 units/ml gentamycin.
(§2) BMEC were cultured on 1% gelatine-coated culture flasks and employed in experiments between passage 6-12.
(§3) Ninety-six-well plates (Falcon) were coated with either fibronectin or vitronectin (both at […] in phosphate buffered saline) overnight at 4° C. Cells were detached using EDTA (1 mM)/trypsine (0.25%) and resuspended in own medium described above. Approximately 40,000 cells/[…] were applied for each well and allowed to adhere for 60 min at 37° C. in presence of different amounts of RGD peptides. For all experiments the non-adherent cells were removed with PBS and the remaining cells were fixed with 4% paraformaldehyde for 10 min.
(§4) Cells were stained with 1% toluidine blue for 10 min and rinsed with water.
(§5) Stained cells were solubilized with 1% SDS and quantified on a microtiter plate reader at 600 nm.
(§6) Experiments described were performed in quadruplicate and repeated a minimum of three times. […]
(§7) The percentages of adhesion inhibition refer to 100 µM concentration of each peptide of and it's calculated by the following formula (control-sample/control×100) where control was RGD untreated sample. […] The t-test has been calculated, using the Mann Witney non parametric test, by the instat program. […]

[2] = tested on: murine lung carcinoma cells (M109) adhesion to Vitronectin; assay: Adhesion assay on vitronectin, M109 cells; assay type: cell-based
Procedure: Murine lung carcinoma cells (M109) were purchased from American Type Collection Culture (ATCC) and maintained in RPMI supplemented with 10% foetal calf serum, 10 mM L-glutamine and 100 units/ ml gentamicin.
as §3, §4, §5, §6
(§8) The percentages of adhesion inhibition refer to 1.5 μM concentration of each peptide and were calculated by the following formula (control-sample/control×100) where control was RGD untreated sample.
The t-test has been calculated using the Mann Witney non parametric test, by the instat program. […]

[3] = tested on: HMEC cells adhesion to Vitronectin; assay: Adhesion assay on vitronectin, HMEC cells; assay type: cell-based
Procedure: as §3, §4, §5
Experiments described were performed in quadruplicate and repeated a minimum of three times.
To asses the ability of ST1646 peptide to compete with vitronectin in adhesion assay also on other cells type, we performed this experiment using microvascular endothelial cells (HMEC), human prostate carcinoma cells (PC3) and murine lung carcinoma cells (M109). Table 6 (a, b and c) show a good activity of the ST1646 peptide in inhibiting adhesion of all cells type. […]
as §8

M109 lung carcinoma = assay: Antitumor and antimetastatic activity on M109 lung carcinoma-bearing Balb/c mice; assay type: in vivo; conditions: 200 μg/mouse (10 mg/kg) i.p. qdx9; lung metastases at day 16; untreated group 34
Procedure: Balb/c mice were injected i.m. with M109 lung carcinoma cells (3×10^5 cells/mouse) into the hind leg muscle.
Tumors were excised at day 10th after tumor implant. Mice were sacrificed at day 16th from tumor implant and lungs were removed. The number of lung metastases has been evaluated on tumor-excised mice (3 mice/group) using a dissecting microscope.
TVI % (tumor volume inhibition)=100−[(mean tumor weight of treated group/mean tumor weight of control group)×100]. Calculated on day 16th after tumor implant (just before mice sacrifice) on nonoperated mice.

[4] = tested on: human prostate carcinoma cells (PC3) adhesion to Vitronectin; assay: Adhesion assay on vitronectin, PC3 cells; assay type: cell-based
Procedure: Human prostate carcinoma cells (PC3) were purchased from American Type Collection Culture (ATCC) and maintained in RPMI supplemented with 10% foetal calf serum, 10 mM L-glutamine, 1% sodium piruvate and 100 units/ml gentamicin.
as §3, §4, §5, §6, §8

[5] = tested on: bovine microvascular endothelial cells (BMEC) adhesion to Fibronectin; assay: Adhesion inhibition of BMEC to fibronectin; assay type: cell-based
Procedure: as §1, §2, §3, §4, §5, §6
as §7, with “μM” for “µM”

Question: Which “% Inhibition” value ([1]; BMEC on vitronectin, 100 µM concentration of each peptide, mean of 4 samples) does the source give for `CC(C)[C@@H]1NC(=O)[C@@H](Cc2ccccc2)NC(=O)[C@H](CC(=O)O)NC(=O)CNC(=O)[C@H](CCCNC(=N)N)NC1=O` [KESSLER, cyclo (Arg-Gly-Asp-D-Phe-Val)] here?
Answer: 96%

Question: What about the IC50 ([1]; BMEC, vitronectin-coated plates, 100 to 0.6 μM tested, ± SD) of the same molecule?
Answer: 7.8 ± 1.2 µM

Question: What about the “% Inhibition” value ([2]; 1.5 μM peptide) of the same molecule?
Answer: 70%

Question: What about the IC50 ([2]; average of 3 experiments) of the same molecule?
Answer: 0.46 ± 0.5 µM

Question: What about the “% Inhibition” value ([3]; 1.5 μM peptide) of the same molecule?
Answer: 39%

Question: What about the IC50 ([3]; average of 3 experiments) of the same molecule?
Answer: 4.23 ± 0.31 µM

Question: And the “Mean no. of metastases” value (M109 lung carcinoma)?
Answer: 23

Question: And the “% Inhibition” value ([4]; 1.5 μM peptide)?
Answer: 69%

Question: What about the IC50 ([4]; average of 3 experiments) of the same molecule?
Answer: 2.5 ± 0.2 µM

Question: And the “% Inhibition” value ([5]; BMEC on fibronectin, 100 μM concentration of each peptide, mean of 4 samples)?
Answer: 30%

Question: And the IC50 ([5]; BMEC, fibronectin-coated plates, 100 to 0.6 μM tested, ± SD)?
Answer: > 100 µM
